Laboratory results reported in PubChem BioAssay AID1159558 (GlaxoSmithKline (GSK), 2015).
Activity calls are given as the source filed them.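 The calls were made as follows: active = IC50 against T. cruzi CYP51 below a set limit; inactive = the rest.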

Target: Sterol 14-alpha demethylase (Trypanosoma cruzi (strain CL Brener)) (UniProt Q7Z1V1)
Test: TcCYP51 inhibitors, dose response, mechanism study for T. cruzi antiparasitic project, biochemical, recombinant enzyme (AID 1159558);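 also: enzyme in bacterial membranes with Anopheles gambiae CYP reductase and cytochrome b5 partners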
Settings: recombinant T. cruzi CYP51, BOMCC fluorescence

Chain of Sterol 14-alpha demethylase (Trypanosoma cruzi (strain CL Brener)) (Q7Z1V1 whole entry, looked up): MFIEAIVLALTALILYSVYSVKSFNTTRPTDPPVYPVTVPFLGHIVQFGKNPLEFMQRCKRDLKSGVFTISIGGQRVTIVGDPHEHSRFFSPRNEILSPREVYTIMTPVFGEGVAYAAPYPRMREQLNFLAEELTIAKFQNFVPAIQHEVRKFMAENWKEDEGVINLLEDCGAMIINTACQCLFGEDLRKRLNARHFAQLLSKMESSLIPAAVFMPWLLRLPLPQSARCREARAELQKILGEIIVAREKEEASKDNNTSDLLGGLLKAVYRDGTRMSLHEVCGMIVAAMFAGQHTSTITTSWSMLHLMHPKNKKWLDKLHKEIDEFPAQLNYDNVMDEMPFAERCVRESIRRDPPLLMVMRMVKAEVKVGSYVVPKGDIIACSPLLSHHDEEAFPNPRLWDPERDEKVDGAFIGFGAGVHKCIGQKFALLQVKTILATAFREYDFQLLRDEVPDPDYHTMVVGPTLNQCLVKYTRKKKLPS

IC50 | SMILES
25 µM | CCn1c(-c2nonc2N)nc2c([C@@H](C)O)ncc(O[C@H](CN)c3ccccc3)c21
3.2 µM | C[C@@H](Oc1cc(-n2cnc3cc(N)ccc32)sc1C(N)=O)c1ccccc1Cl
> 100 µM (inactive) | CNC(=O)C1Cc2ccccc2N1C(=O)Cc1ccc(F)cc1 (configuration not stated)
20 µM | COc1ccc(Nc2nc(-c3ccccn3)cs2)c(OC)c1
7.9 µM | CC(C)(C)c1csc(NC(=O)c2ccc([N+](=O)[O-])s2)n1
0.16 µM | O=C(Nc1cccc(F)c1)N1CCC(Oc2cccc(-c3cccnc3)c2)CC1
25 µM | COc1ccccc1C1CC(c2ccc(NS(C)(=O)=O)cc2)=NN1C(=O)c1cccs1 (configuration not stated)
3.2 µM | CCc1cccc(CC)c1-n1c(SCC(=O)N2CC(=O)Nc3ccccc32)nnc1-c1cccnc1
0.16 µM | O=C(CN(c1cccc(C(F)(F)F)c1)S(=O)(=O)c1ccc(Cl)cc1)NCc1ccc(F)c(F)c1
0.16 µM | CC(Cn1ccnc1)NC(=O)C=Cc1ccc(Cl)cc1 (configuration not stated)
0.063 µM | Cc1nn(C)c(Cl)c1CN(Cc1cccnc1)Cc1ccsc1
> 100 µM (inactive) | NC(=O)c1ccsc1NC(=O)c1ccc([N+](=O)[O-])s1
25 µM | CCN(CC)c1ccc(S(=O)(=O)N(CC)CC)c2nonc12
> 100 µM (inactive) | OC1CCC(Nc2nccc(-c3sc(C4CCOCC4)nc3-c3ccc(F)c(F)c3)n2)CC1 (configuration not stated)
16 µM | CC(C(=O)Nc1ccccc1F)N(C)CC(=O)Nc1cccc2ccccc12 (configuration not stated)
40 µM | O=C(Nc1nc(-c2ccccn2)cs1)N1C[C@H]2C[C@@]2(c2ccccc2)C1
> 100 µM (inactive) | CCN(C)Cc1ccc(N2CCC(NS(=O)(=O)c3ccc4c(c3)CCO4)CC2)nc1
0.079 µM | COc1ccc(CN(C)Cc2ccncc2)cc1-c1ccc(S(=O)(=O)NC2CCC2)s1
2.5 µM | O=C(Cc1ccc2c(c1)CCC2)Nc1n[nH]c(-c2ccccn2)n1
79 µM | Cc1[nH]nc(Nc2ccnc3[nH]ccc23)c1C
0.079 µM | c1cncc(CN(Cc2ccco2)Cc2cn[nH]c2-c2cccs2)c1
32 µM | COc1ccc(Nc2nccc(N(C)c3n[nH]c4c(F)cccc34)n2)cc1S(C)(=O)=O
> 100 µM (inactive) | COc1cccc(-c2cc(C(F)(F)F)nc(-n3ccc([N+](=O)[O-])n3)n2)c1
> 100 µM (inactive) | COc1ccc(C(=O)Nc2cc(C(F)(F)F)ccc2N2CCOCC2)c(OC)c1
6.3 µM | COc1ccc2nccc([C@H](O)CN3CC[C@H](NC(=O)c4ccc(Br)cc4)[C@@H](O)C3)c2n1
10 µM | COc1ccc(OC)c(NC(=O)c2ccc([N+](=O)[O-])o2)c1

IC50 | SMILES
> 100 µM (inactive) | CC1CCCCN1C(=O)NCCc1coc(-c2ccc(F)cc2)n1 (configuration not stated)
10 µM | N#Cc1cnc(Nc2cccc(CCN3CCOCC3)c2)nc1Nc1ccccc1C(N)=O
> 100 µM (inactive) | CC1=NN(C(=O)CCn2cnc([N+](=O)[O-])n2)C(O)(C(F)(F)F)C1 (configuration not stated)
10 µM | Cc1nc2c(-c3ncn[nH]3)cc(NC(=O)Cc3ccccc3)cn2c1C
> 100 µM (inactive) | COc1ccc(-c2csc(NC(=O)c3ccc([N+](=O)[O-])s3)n2)cc1
40 µM | Cn1ccnc1-c1nc(NCc2ccccc2Cl)cc(C2CC2)n1
0.32 µM | CCn1nccc1CN(C)C(=O)C=Cc1ccc(Cl)cc1
0.1 µM | Cc1ccc2c(c1)-c1onc(C(=O)N3CCCCC3c3cccnc3)c1CO2 (configuration not stated)
> 100 µM (inactive) | Cc1ccc(NC(=O)C(C)n2nc([N+](=O)[O-])c(Br)c2C)cc1Cl (configuration not stated)
79 µM | N#Cc1ccccc1S(=O)(=O)N1CCN(C(=O)CNC(=O)c2ccc3c(c2)OCO3)CC1
63 µM | Cc1ccnc(NS(=O)(=O)c2ccc(NC(=O)c3ccc([N+](=O)[O-])s3)cc2)n1
> 100 µM (inactive) | NC(=O)c1ncc(N[C@@H]2CCCNC2)nc1Nc1cccc(Cl)c1
0.063 µM | O=C(NCCc1cccnc1)c1ccc(-c2ccccc2F)o1
32 µM | COc1cc(OC)cc(C(NS(=O)(=O)c2ccc(Cl)c(C(F)(F)F)c2)c2nccn2C)c1 (configuration not stated)
> 100 µM (inactive) | O=C(Nc1nc2cc(Cl)ccc2o1)c1cccc(Cl)c1
50 µM | CC(=O)NC1(c2ccccc2)CCN(CC(=O)Nc2ccccc2-c2ccccc2)CC1
100 µM | O=C(NCCc1ccn(-c2ccccc2)n1)C1CCCCC1
32 µM | CC(=O)Nc1ccc(Nc2nccc(-c3cnn4ncccc34)n2)cc1C(F)(F)F
0.05 µM | CN(C)c1ncc(-c2cncn2CCOc2ccc(Cl)cc2)cn1
40 µM | CS(=O)(=O)c1ccc(Nc2nccc(Nc3n[nH]c4ccc(F)cc34)n2)c(F)c1
> 100 µM (inactive) | O=C(NCC1CCCCN1C(=O)c1cccc2ccccc12)c1ccccc1 (configuration not stated)
32 µM | O=C(NNC(=O)c1ccccn1)c1ccc(-c2ccccc2)cc1
> 100 µM (inactive) | CCN(CC)S(=O)(=O)c1ccc(C(=O)Nc2cc(C)nn2-c2nc(C)c(C)c(=O)[nH]2)cc1
> 100 µM (inactive) | O=C(Nc1ccc(Br)cn1)c1ccc(Cn2cnc([N+](=O)[O-])n2)cc1
13 µM | O=S(=O)(c1cccc(CSc2nnc(-c3ccc4c(c3)OCO4)o2)c1)N1CCOCC1
> 100 µM (inactive) | CC(C)C[C@H](NC(=O)c1ccc(-c2ccccc2)o1)C(=O)NC1(C#N)CC1
